From paper PMC12703428, “Development of Granzyme A Turn‐ON Fluorescent Activity‐Based Probes” (Chembiochem, 2025)

How the values were obtained:
[1] = molecular target: T1, recombinant human GzmA (hGzmA) (Homo sapiens, UniProt P12544); assay: In-gel fluorescence labeling of recombinant active hGzmA; assay type: biochemical; settings: hGzmA 100 nM preincubated with inhibitor 5 μM 2 h, then ABPs 3–5 50 nM 2 h, 37 °C
T1 construct: active, mature form; purchased Enzo Life Sciences ALX-201-118-C010
T1 sequence (P12544 29-262): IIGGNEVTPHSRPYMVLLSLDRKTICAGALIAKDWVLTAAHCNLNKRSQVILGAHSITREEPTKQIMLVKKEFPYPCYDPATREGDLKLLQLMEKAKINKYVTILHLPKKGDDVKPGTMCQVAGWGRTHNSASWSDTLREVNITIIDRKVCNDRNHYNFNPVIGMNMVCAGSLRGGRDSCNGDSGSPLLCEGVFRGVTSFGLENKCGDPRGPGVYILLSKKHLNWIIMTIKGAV
Procedure: Figure 3 GzmA ABPs covalently and competitively label active human and mouse GzmA. […] Recombinant hGzmA (100 nM) was incubated with varying concentrations of each ABP at 37 °C. B) Competitive labeling of hGzmA. Recombinant hGzmA (100 nM) was preincubated with covalent inhibitors 1 or 2 (5 μM) for 2 h, followed by labeling with ABPs 3 –5 (50 nM) for 2 h at 37 °C. Note: Pro‐form of hGzmA (the first lane) is not effectively stained by SYPRO‐Ruby. C) Structure of qABP 6. D) Quenched natures of 5 and 6. […] F) Labeling of mGzmA (1 μM) with 5 and 6 (1 μM, 24 h, 37 °C). Protein samples were analyzed by SDS‐PAGE and in‐gel fluorescence scanning for Cy5 signal and SYPRO Ruby staining. […]
C. In-gel fluorescence imaging
For recombinant enzyme labeling, working solutions of hGzmA (purchased from R&D Systems, Cat. No. 2905-SE-010 for pro-from and Enzo Life Sciences, Cat. No.: ALX-201-118-C010 for active, mature form) were prepared by diluting a 12.6 µM stock in the following assay buffer: 50 […]
mM Tris, 100 mM NaCl, 5 mM CaCl2, 0.01% (v/v) Tween-20, pH 7.5. […]
In-gel fluorescence and
SYPRO-Ruby staining images were acquired on a Typhoon FLA9500 instrument, while western blot images were acquired on an AMHERST ImageQuant 800 instrument.
Conditions for probe/inhibitor treatment for in-gel fluorescence analysis: Inhibitors and probes were incubated with active (or pro-) GzmA followed by treatment with 4X SDS reducing sample buffer. Samples were then heated to 100 °C for 5 min, brought to room temperature, and centrifuged. 20 µL of each sample was loaded onto a 15% polyacrylamide gel, which was then subjected to electrophoresis followed by the acquisition of in-gel fluorescence images. GzmA labeling was confirmed by western blotting, while protein loading was confirmed with SYPRO-Ruby staining. Incubation conditions for each figure/experiment are described below:
Conditions for Figure 3A: For labeling comparison between 3, 4, and 5, 100 nM of human GzmA was incubated with various concentrations of each probe for 2 h at 37 °C. For time-dependent labeling, 50 nM of 5 was incubated with 100 nM of human GzmA at 37 °C for the specified durations. Final reaction volume for both was 20 µL.
Conditions for Figure 3B: 100 nM of human GzmA was incubated with DMSO or 5 µM of 1 or 2 for 2 h at 37 °C in Eppendorf tubes. 0.5 µL of a 2 µM solution of 3, 4, or 5 in DMSO was then spiked into the Eppendorf tube, yielding a final probe concentration of 50 nM. The solution was incubated for another 2 h at 37 °C. Final reaction volume was 20 µL.
Conditions for Figure 3E: 100 nM of human GzmA was incubated with various concentrations of 5 or 6, respectively, for 2 h at 37 °C. Final reaction volume was 20 µL.
Conditions for Figure 3F: 1 µM of mouse GzmA was incubated with 1 µM of 5 or 6, respectively, for 24 h at 37 °C. Final reaction volume was 20 µL.
Conditions for Figure 4A: 1 mg/mL of lysates was incubated with various concentrations of 5 or 6, respectively, for 1 h at 37 °C.
Conditions for Figure 4C: Various concentrations of probes 3-6 were incubated with 1x10^6 NK-92 cells for 2 h at 37 °C in a humidified incubator. Cells were centrifuged, washed with PBS (x2) and lysed with ~40 µL of ice-cold RIPA buffer. Lysates were collected, protein concentration was measured with PIERCE BCA protein assay and samples were analyzed with in-gel fluorescence and GzmA western blotting. […]
All flow cytometry data were collected on BD LSRFortessa and FACSymphony A5 Cell Analyzers and analyzed with FlowJo software. Briefly, cells were processed according to the intended protocols for each experiment. Thereafter, cells were pelleted, fixed in the dark for 20 min at room temperature (Fixation buffer: BioLegend #420801), and pelleted again by centrifugation. Fixed cells were then resuspended in 1x intracellular staining perm wash buffer (BioLegend #421002), followed by centrifugation two times. Fixed/Permeabilized cells were then resuspended in […]

hGzmA = molecular target: T2, hGzmA (Homo sapiens, UniProt P12544); assay: Granzyme A cleavage assay (fluorogenic substrate); assay type: biochemical; settings: hGzmA 50 nM, inhibitor 200 nM, substrate 100 μM, 50 mM Tris, 150 mM NaCl, 0.01% Triton X-100 pH 8, 15 h, 37 °C, Ex/Em 380/460 nm, mean ± SD n = 3
T2 construct: active, mature form; purchased Enzo Life Sciences ALX-201-118-C010
T2 sequence (P12544 29-262): T1 sequence (P12544 29-262)
Procedure: Figure 1 GzmA phosphonate and phosphinate inhibitors. A) Synthesis of phosphonate warhead I‐3. B) Synthesis of phosphosphinate warhead I‐4. C) Synthesis of Ac‐IGNR‐PO(OPh)2 1 and Ac‐IGNR‐PO(OPh)Ph 2. D) GzmA inhibition. hGzmA (50 nM) was incubated with inhibitor 1 or 2 (200 nM) and GzmA fluorogenic substrate (Ac‐Oic‐Gly‐Pro‐Arg‐PABA‐MU, 100 μM) for 15 h at 37 °C. Fluorescence at Ex/Em: 380/460 nm was recorded for residual GzmA proteolytic activity.
A. Granzyme A cleavage assay
Briefly, hGzmA (50 nM) was incubated with either inhibitor 1 or 2 (200 nM), and GzmA fluorogenic substrate […] (100 µM) in 50 mM Tris, 150 mM NaCl, 0.01% Triton X-100 (pH 8) for 15 hr at 37 °C. Recorded fluorescence at Ex/Em: 380/460 nm for residual GzmA […]
Cat. No. CRL-2570) and 4T1 (ATCC Cat. No. CRL-2539) cells were cultured in RPMI supplemented with 10% fetal bovine serum (FBS), 1% penicillin/streptomycin (PS), and 2 mM L-glutamine, while HEK293T and MDA-MB-231 cells (ATCC Cat. No. HTB-26) were cultured in DMEM supplemented likewise as described above. […] The supernatant was collected, and protein concentration was measured using a Pierce BCA protein assay. […]
C. In-gel fluorescence imaging […]
Conditions for probe/inhibitor treatment for in-gel fluorescence analysis: Inhibitors and probes were incubated with active (or pro-) GzmA followed by treatment with 4X SDS reducing sample buffer. […]

Row | Compound | Blocking of ABP labeling of hGzmA by inhibitor pretreatment [1] | Inhibition of GzmA‐mediated cleavage of a fluorogenic substrate (residual GzmA proteolytic activity) (hGzmA)
1 | CC[C@H](C)[C@H](NC(C)=O)C(=O)NCC(=O)N[C@@H](CC(N)=O)C(=O)NC(CCCNC(=N)N)P(=O)(Oc1ccccc1)Oc1ccccc1 (stereo partly shown) [compound 1, Ac‐IGNR‐PO(OPh)2] | competitively blocked | comparable potency
2 | CC[C@H](C)[C@H](NC(C)=O)C(=O)NCC(=O)N[C@@H](CC(N)=O)C(=O)NC(CCCNC(=N)N)P(=O)(Oc1ccccc1)c1ccccc1 (stereo partly shown) [compound 2, Ac‐IGNR‐PO(OPh)Ph] | competitively blocked | comparable potency
